# Assay results reported in publication PMC9469100, “Turning Nonselective Inhibitors of Type I Protein Arginine Methyltransferases into Potent and Selective Inhibitors of Protein Arginine Methyltransferase 4 through a Deconstruction–Reconstruction and Fragment-Growing Approach” (Journal of Medicinal Chemistry, 2022).
# Target: T1, DOT1L (Homo sapiens, UniProt Q8TEK3)
# T1 construct: DOT1L (residues 1–416); N-terminal GST-tag; GST (N); purchased Reaction Biology Corporation
# Assay: HotSpot KMT activity assay, DOT1L
# Type: biochemical
# Conditions: mean ± SD, two experiments, read-out: % enzyme residual activ. after treatment with 12h, 1 µM, DOT1L
# Method: Then, ^3H-SAM (final concentration 1 μM) was delivered into the reaction mixture to initiate the reaction. After incubation for 60 min at 30 °C, the reaction mixture was delivered to filter-paper for detection (as assessed by scintillation). […] No inhibitor control (DMSO) was considered as 100% enzyme activity. Data were analyzed using Excel and GraphPad Prism 6.0 software (GraphPad Software Inc., San Diego, CA). Values obtained for each compound are mean ± SD determined for two separate experiments.
# T1 sequence (Q8TEK3 1-416): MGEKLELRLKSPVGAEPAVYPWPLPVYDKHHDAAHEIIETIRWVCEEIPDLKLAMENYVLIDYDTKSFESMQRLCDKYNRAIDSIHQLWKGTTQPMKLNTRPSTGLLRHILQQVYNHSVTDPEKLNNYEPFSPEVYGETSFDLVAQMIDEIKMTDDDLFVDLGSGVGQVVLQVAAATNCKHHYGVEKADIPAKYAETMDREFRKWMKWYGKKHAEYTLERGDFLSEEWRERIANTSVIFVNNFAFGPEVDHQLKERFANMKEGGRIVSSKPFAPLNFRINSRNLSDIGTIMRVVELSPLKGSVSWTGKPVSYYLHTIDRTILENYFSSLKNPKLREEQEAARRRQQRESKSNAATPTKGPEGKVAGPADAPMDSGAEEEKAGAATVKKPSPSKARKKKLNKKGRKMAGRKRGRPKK
smiles,measurement,value
"COC(=O)c1cc(O)c2cc(NC(=O)NCCCCNC(=N)NC/C=C/[C@H]3O[C@@H](n4cnc5c(N)ncnc54)[C@H](O)[C@@H]3O)ccc2c1 [12h, Methyl 6-(3-(4-(3-((E)-3-((2R,3S,4R,5R)-5-(6-Amino-9H-purin-9-yl)-3,4-dihydroxytetrahydrofuran-2-yl)allyl)guanidino)butyl)ureido)-4-hydroxy-2-naphthoate]",remaining activity at 1 µM,97.7 ± 3.48%
